Assay results from patent publication US20240116945A1, “EXATECAN-DERIVED TOPOISOMERASE-1 INHIBITORS PHARMACEUTICAL COMPOSITIONS, AND USES THEREOF” (Merck Sharp & Dohme LLC, priority 2022, published 2024).
Where a name gives a salt, the structure may show the parent alone.

System: Jeko-1 cells
Assay: CellTiter-Glo 2.0 Cytotoxicity Assay
Format: cell-based
Conditions: Homo sapiens, JeKo-1, read-out: Jeko-1 EC50 (nM), Jeko-1 cells, 3000 cells/well; compounds added Day 1; CellTiter-Glo 2.0 luminescence read on Day 4 or 5
Procedure: Reaction progress and synthetic intermediate analysis were assessed by LCMS (UV detection with ESI, APCI, or other mass detection) when applicable using a MeCN/water gradient with either TFA, formic acid, or NH4HCO3 modifier. Silica gel and reverse-phase flash column chromatography were conducted with commercially available pre-packed columns. Reverse-phase preparative HPLC purification was performed on preparative HPLC instruments with UV and MS detection using a MeCN/water gradient with either TFA, formic acid, or NH4OH modifier. ^1H NMR spectra were collected at room temperature, and chemical shifts are reported in ppm relative to the residual proteo-solvent signals, and multiplicities, coupling constants (where applicable), and signal integrations are listed parenthetically. Unless otherwise noted, all EC50 data presented in tables refers to the CellTiter-Glo® 2.0 Cytotoxicity Assay that is described in the Biological Assay section.
CellTiter-Glo® 2.0 Cytotoxicity Assay
Step 1: Seed 384-Well Plates for Assay (45 μL Per Well) on Day 0
Jeko-1 cells were quickly thawed in a cryo-vial by incubating them in a 37° C. water bath for <1 min until there is just a small bit of ice left in the vial. The vial was promptly removed and wiped down with 70% ethanol. The cells were transferred from the vial to a sterile centrifuge tube containing 8 mL of pre-warmed cell culture medium. The vial was flushed with an additional 1 mL of medium to ensure complete transfer of cells to the centrifuge tube. The cells were then centrifuged at 150×g for 5 minutes. The supernatant was aspirated, and the cell pellet was resuspended in 10-20 mL cell culture medium. Cells were counted using Vi-cell and prepared 6.6×10^4 cells/ml, 3000 cells/45 μL per well. Then added 45 μL/well of cells into Corning® 384-well Low Flange White Flat Bottom Polystyrene TC-treated Microplates (Corning, Cat #3570) using Standard Cassette Combi (if needed, dispense 1 dummy plate at 20 μL to help normalize Combi, using medium speed). The plates were spun down at 150×g for 30 seconds.
Step 2: Add Compounds on Day 1
The compound plates and reference compound stock were taken out and allowed to thaw at RT. The tubes were centrifuged at 2000×g for 30 seconds. The 10× Intermediate assay plates (Greiner plate, Cat #781280) were prepared using an Echo liquid handler. Proper buffer (HBSS (Gibco, Cat #14025-092)+10 mM HEPES (Gibco, Cat #15630-080)+0.1% BSA (Sigma, Cat #A9576)) were used to make serial dilutions. Media (no cells) was used for Max_E. Compound (5 μL of 10×) was transferred from intermediate plate to assay plate using a Bravo liquid handler using a very slow speed so the cell monolayer wasn't disturbed. The plates were spun down at 150×g for 30 seconds.
Step 3: CellTiter-Glo 2.0 Assay (Promega, Cat #G9242) on Day 4 or 5 (CellTiter-Glo Kit Stored at −70° C.)
The CellTiter-Glo® 2.0 Reagent was thawed at 4° C. overnight, taking care not to expose the reagent to temperatures above 25° C.). The kit was equilibrated to RT for approximately 30 minutes. CellTiter-Glo® 2.0 Reagent (20 μl) was added to 50 μl of medium containing cells using Standard Cassette Combi. The contents were mixed for 2-3 minutes on an orbital shaker to induce cell lysis. The plates were spun down at 150×g for 30 seconds. The plates were allowed to incubate at RT for 5 minutes to stabilize the luminescent signal.
Illustrative compounds of the present disclosure were tested in the above assay in Example 15, and results are provided in the Table 9 below: […]

Row | Structure (SMILES) | EC50 [nM]
1 | CC[C@@]1(O)C(=O)OCc2c1cc1n(c2=O)Cc2c-1nc1cc(F)c(C)c3c1c2[C@@H](NCc1ccccc1CO)CC3 [Compound 56] | 5.5
2 | CC[C@@]1(O)C(=O)OCc2c1cc1n(c2=O)Cc2c-1nc1cc(F)c(C)c3c1c2[C@@H](NC(=O)C(C)(F)CO)CC3 (single isomer, unassigned) [Compound 36] | 2.4
3 | CC[C@@]1(O)C(=O)OCc2c1cc1n(c2=O)Cc2c-1nc1cc(F)c(C)c3c1c2[C@@H](NC(=O)C(C)(CO)CO)CC3 [Compound 6] | 2.9
4 | CC[C@@]1(O)C(=O)OCc2c1cc1n(c2=O)Cc2c-1nc1cc(F)c(C)c3c1c2[C@@H](NC(=O)[C@H](O)CN)CC3 [Compound 43] | 27
5 | CC[C@@]1(O)C(=O)OCc2c1cc1n(c2=O)Cc2c-1nc1cc(F)c(C)c3c1c2[C@@H](NCC(C)(F)F)CC3 [Compound 57] | 6.2
6 | CC[C@@]1(O)C(=O)OCc2c1cc1n(c2=O)Cc2c-1nc1cc(F)c(C)c3c1c2[C@@H](NC(=O)[C@@H](C)CO)CC3 [Compound 32, (S)—N-((1S,9S)-9-ethyl-5-fluoro-9-hydroxy-4-methyl-10,13-dioxo-2,3,9,10,13,15-hexahydro-1H,12H-benzo[de]pyrano[3′,4′: 6,7]indolizino[1,2-b]quinolin-1-yl)-3-hydroxy-2-methylpropanamide] | 1.4
7 | CC[C@@]1(O)C(=O)OCc2c1cc1n(c2=O)Cc2c-1nc1cc(F)c(C)c3c1c2[C@@H](N(C)CC(F)F)CC3 [Compound 60, (1S,9S)-1-((2,2-difluoroethyl)(methyl)amino)-9-ethyl-5-fluoro-9-hydroxy-4-methyl-1,2,3,9,12,15-hexahydro-10H,13H-benzo[de]pyrano[3′,4′: 6,7]indolizino[1,2-b]quinoline-10,13-dione] | 9.6
8 | CC[C@@]1(O)C(=O)OCc2c1cc1n(c2=O)Cc2c-1nc1cc(F)c(C)c3c1c2[C@@H](NC(=O)C(CO)C1CC1)CC3 (single isomer, unassigned) [Compound 22] | 4.3
9 | CC[C@@]1(O)C(=O)OCc2c1cc1n(c2=O)Cc2c-1nc1cc(F)c(C)c3c1c2[C@@H](NC(=O)[C@H](O)CO)CC3 [Compound 29] | 3.7
10 | CC[C@@]1(O)C(=O)OCc2c1cc1n(c2=O)Cc2c-1nc1cc(F)c(C)c3c1c2[C@@H](NC(=O)[C@@H](O)CO)CC3 [Compound 28, (1S,9S)-1-((S)-2,3-dihydroxypropanamido)-9-ethyl-5-fluoro-9-hydroxy-4-methyl-10,13-dioxo-2,3,9,10,13,15-hexahydro-1H,12H-benzo[de]pyrano[3′,4′: 6,7]indolizino[1,2-b]quinolin-7-ium hexafluorophosphate (V)] | 9.7
11 | CC[C@@]1(O)C(=O)OCc2c1cc1n(c2=O)Cc2c-1nc1cc(F)c(C)c3c1c2[C@@H](NCCCO)CC3 [Compound 52] | 5.1
12 | CC[C@@]1(O)C(=O)OCc2c1cc1n(c2=O)Cc2c-1nc1cc(F)c(C)c3c1c2[C@@H](NC(=O)C(C)(N)C1CC1)CC3 (stereo partly shown) [Compound 20] | 5.2
13 | CC[C@@]1(O)C(=O)OCc2c1cc1n(c2=O)Cc2c-1nc1cc(F)c(C)c3c1c2[C@@H](NC(=O)C(C)(N)C(F)F)CC3 (stereo partly shown) [Compound 13] | 4.2
14 | CC[C@@]1(O)C(=O)OCc2c1cc1n(c2=O)Cc2c-1nc1cc(F)c(C)c3c1c2[C@@H](NC(=O)[C@@H](O)CCO)CC3 [Compound 2] | 6.6
15 | CC[C@@]1(O)C(=O)OCc2c1cc1n(c2=O)Cc2c-1nc1cc(F)c(C)c3c1c2[C@@H](NC(=O)C(C)(C)N)CC3 [Compound 41, 2-amino-N-((1S,9S)-9-ethyl-5-fluoro-9-hydroxy-4-methyl-10,13-dioxo-2,3,9,10,13,15-hexahydro-1H,12H-benzo[de]pyrano[3′,4′: 6,7]indolizino[1,2-b]quinolin-1-yl)-2-methylpropanamide formate] | 2.3
16 | CC[C@@]1(O)C(=O)OCc2c1cc1n(c2=O)Cc2c-1nc1cc(F)c(C)c3c1c2[C@@H](NC(=O)C(CO)C(F)(F)F)CC3 (single isomer, unassigned) [Compound 10] | 4.4
17 | CC[C@@]1(O)C(=O)OCc2c1cc1n(c2=O)Cc2c-1nc1cc(F)c(C)c3c1c2[C@@H](NC(=O)[C@H](O)CCO)CC3 (single isomer, unassigned) [Compound 1] | 1.4
18 | CC[C@@]1(O)C(=O)OCc2c1cc1n(c2=O)Cc2c-1nc1cc(F)c(C)c3c1c2[C@@H](NCC(=O)NC(C)C)CC3 [Compound 55] | 8.8
19 | CC[C@@]1(O)C(=O)OCc2c1cc1n(c2=O)Cc2c-1nc1cc(F)c(C)c3c1c2[C@@H](NC(=O)C(C)(CCO)C(F)F)CC3 (single isomer, unassigned) [Compound 39] | 4.9
20 | CC[C@@]1(O)C(=O)OCc2c1cc1n(c2=O)Cc2c-1nc1cc(F)c(C)c3c1c2[C@@H](NCC(F)(F)C(F)F)CC3 [Compound 58] | 6.2

Same assay, conditions: Homo sapiens; Jeko-1 cells, 3000 cells/well; compounds added Day 1; CellTiter-Glo 2.0 luminescence read on Day 4 or 5; read-out: Jeko-1 EC50

Row | Structure (SMILES) | EC50 [nM]
21 | CC[C@@]1(O)C(=O)OCc2c1cc1n(c2=O)Cc2c-1nc1cc(F)c(C)c3c1c2[C@@H](NC(=O)CCO)CC3 [Compound 27] | 3.1
22 | CC[C@@]1(O)C(=O)OCc2c1cc1n(c2=O)Cc2c-1nc1cc(F)c(C)c3c1c2[C@@H](NCCO)CC3 [Compound 51, (1S,9S)-9-ethyl-5-fluoro-9-hydroxy-1-((2-hydroxyethyl)amino)-4-methyl-1,2,3,9,12,15-hexahydro-10H,13H-benzo[de]pyrano[3′,4′: 6,7]indolizino[1,2-b]quinoline-10,13-dione formate] | 3.7
23 | CC[C@@]1(O)C(=O)OCc2c1cc1n(c2=O)Cc2c-1nc1cc(F)c(C)c3c1c2[C@@H](NC(=O)C(C)(C)CO)CC3 [Compound 24, N-((1S,9S)-9-ethyl-5-fluoro-9-hydroxy-4-methyl-10,13-dioxo-2,3,9,10,13,15-hexahydro-1H,12H-benzo[de]pyrano[3′,4′: 6,7]indolizino[1,2-b]quinolin-1-yl)-3-hydroxy-2,2-dimethylpropanamide] | 1.8

Same assay, conditions: read-out: Jeko-1 EC50; Jeko-1 cells, 3000 cells/well; compounds added Day 1; CellTiter-Glo 2.0 luminescence read on Day 4 or 5

Row | Structure (SMILES) | EC50 [nM]
24 | CC[C@@]1(O)C(=O)OCc2c1cc1n(c2=O)Cc2c-1nc1cc(F)c(C)c3c1c2[C@@H](NC(=O)C(C)(O)CO)CC3 (single isomer, unassigned) [Compound 5] | 6.7
25 | CC[C@@]1(O)C(=O)OCc2c1cc1n(c2=O)Cc2c-1nc1cc(F)c(C)c3c1c2[C@@H](NC(=O)C(C)(O)CO)CC3 (single isomer, unassigned) [Compound 4] | 1.2
26 | CC[C@@]1(O)C(=O)OCc2c1cc1n(c2=O)Cc2c-1nc1cc(F)c(C)c3c1c2[C@@H](NC(=O)C(F)(F)C(C)O)CC3 (single isomer, unassigned) [Compound 8] | 1.6
27 | CC[C@@]1(O)C(=O)OCc2c1cc1n(c2=O)Cc2c-1nc1cc(F)c(C)c3c1c2[C@@H](NC(=O)C(F)CO)CC3 (single isomer, unassigned) [Compound 34] | 4.3
28 | CC[C@@]1(O)C(=O)OCc2c1cc1n(c2=O)Cc2c-1nc1cc(F)c(C)c3c1c2[C@@H](NC(=O)C(C)(F)CO)CC3 (single isomer, unassigned) [Compound 37] | 3.1
29 | CC[C@@]1(O)C(=O)OCc2c1cc1n(c2=O)Cc2c-1nc1cc(F)c(C)c3c1c2[C@@H](NC(=O)C(CO)C(F)(F)F)CC3 (single isomer, unassigned) [Compound 11] | 5.3
30 | CC[C@@]1(O)C(=O)OCc2c1cc1n(c2=O)Cc2c-1nc1cc(F)c(C)c3c1c2[C@@H](NC(=O)C(F)CO)CC3 (single isomer, unassigned) [Compound 35] | 1.5
31 | CC[C@@]1(O)C(=O)OCc2c1cc1n(c2=O)Cc2c-1nc1cc(F)c(C)c3c1c2[C@@H](NC(=O)C(N)(Cc1ccccc1)C(F)(F)F)CC3 (single isomer, unassigned) [Compound 18] | 44
